Reference: patent US20230416271A1, “HETEROARYLQUINAZOLINE COMPOUNDS AS PROTEIN KINASE INHIBITORS” (CHENGDU CYNOGEN BIO-PHARMACEUTICAL TECHNOLOGY CO., LTD., priority 2020, published 2023)

Columns and labels:
Type in all cases: biochemical
[1] = biological target: CDK2/Cyclin A2 (Homo sapiens (Human), UniProt P24941); assay: Kinase activity assay (Caliper Mobility Shift Assay), CDK2/Cyclin A2
Protocol: (§1) The inhibitory effect of compounds against the kinase CDK4/cyclin D3 was detected by Caliper Mobility Shift Assay method. The final concentration of the compounds to be tested was set at 10 concentrations starting from 1 uM by 3-fold serial dilution. 5 μL of compounds at 5-fold final concentration and 10 μL of CDK4/cyclin D3 kinase solution at a final concentration of 10 nM was added to a 384-well reaction plate, respectively. The plate was pre-incubated for 10 min at room temperature (with negative control wells containing 10 uL of kinase buffer and 5 uL of 5% DMSO; positive control wells containing 10 μL of kinase solution and 5 uL of 5% DMSO). The reaction was initiated by adding 10 μL of ATP at a final concentration of 250 uM and the corresponding substrate peptide mixture at room temperature for 150 minutes. 30 uL of stop detection solution containing EDTA was added to stop the kinase reaction. Caliper EZ Reader was used to read the conversion rate. Conversion inhibition rate %=(average conversion rate of positive control %−conversion rate of sample %)/(average conversion rate of positive control %−average conversion rate of negative control %). wherein: negative control wells represent the conversion rate readings of wells without enzymatic activity; positive control wells represent conversion readings for wells with no compound inhibition. The log(inhibitor) vs. response—Variable slope of the analysis software GraphPad Prism 5 was used with log concentration value as the X-axis and the percent inhibition rate as the Y-axis to fit the dose-response curve, the IC50 value of each compound on the enzyme activity was thus obtained. Calculation formula: Y=Bottom+(Top−Bottom)/(1+10^((Log IC50−X)*HillSlope)).
(§2) The IC50 values and inhibitory activities of compounds of the present disclosure on CDK6/Cyclin D3, CDK2/Cyclin A2, and CDK9/cyclin T1 were tested in a similar manner.

[2] = biological target: CDK4/cyclin D3 (Homo sapiens (Human), UniProt P11802); assay: Kinase activity assay (Caliper Mobility Shift Assay), CDK4/cyclin D3; settings: 10 nM kinase, 250 uM ATP
Protocol: as §1

[3] = biological target: CDK6/Cyclin D3 (Homo sapiens (Human), UniProt Q00534); assay: Kinase activity assay (Caliper Mobility Shift Assay), CDK6/Cyclin D3
Protocol: as §1, §2

Chain of CDK4/cyclin D3 (P11802 whole entry, species assumed): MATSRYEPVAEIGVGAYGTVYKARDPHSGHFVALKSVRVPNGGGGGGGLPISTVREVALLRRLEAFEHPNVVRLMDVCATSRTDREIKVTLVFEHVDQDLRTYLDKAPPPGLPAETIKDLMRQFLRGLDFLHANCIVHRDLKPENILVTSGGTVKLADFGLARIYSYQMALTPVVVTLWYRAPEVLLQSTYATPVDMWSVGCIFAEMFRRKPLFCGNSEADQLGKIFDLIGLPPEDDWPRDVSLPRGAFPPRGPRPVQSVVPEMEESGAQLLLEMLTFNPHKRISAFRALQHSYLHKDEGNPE
Chain of CDK4/cyclin D3 (P30281 whole entry partner, species assumed): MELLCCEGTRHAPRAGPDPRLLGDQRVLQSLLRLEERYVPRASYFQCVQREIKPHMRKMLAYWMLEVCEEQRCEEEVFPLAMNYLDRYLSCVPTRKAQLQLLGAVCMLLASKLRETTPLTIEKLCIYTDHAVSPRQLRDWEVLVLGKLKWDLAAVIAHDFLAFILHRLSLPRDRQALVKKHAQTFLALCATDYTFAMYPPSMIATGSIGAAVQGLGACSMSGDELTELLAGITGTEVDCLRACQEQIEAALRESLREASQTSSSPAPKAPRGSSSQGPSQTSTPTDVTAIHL
Chain of CDK6/Cyclin D3 (Q00534 whole entry, species assumed): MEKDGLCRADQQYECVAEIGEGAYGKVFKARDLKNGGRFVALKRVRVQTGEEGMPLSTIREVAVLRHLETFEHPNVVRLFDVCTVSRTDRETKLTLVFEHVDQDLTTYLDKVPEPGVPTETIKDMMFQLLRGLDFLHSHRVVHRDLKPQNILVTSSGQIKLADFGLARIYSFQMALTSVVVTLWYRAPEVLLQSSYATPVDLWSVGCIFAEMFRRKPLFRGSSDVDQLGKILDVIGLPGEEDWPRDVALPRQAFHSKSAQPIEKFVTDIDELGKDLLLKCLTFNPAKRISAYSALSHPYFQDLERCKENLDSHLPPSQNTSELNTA
Chain of CDK6/Cyclin D3 (P30281 whole entry partner, species assumed): as the sequence (P30281 whole entry partner, species assumed) above

| IC50 [1] [nM] | IC50 [2] [nM] | IC50 [3] [nM] | Structure (SMILES) |
| --- | --- | --- | --- |
| 258 | 26 | 38 | CC(C)c1noc2ccc3cnc(N[C@H]4CC[C@H](Nc5ncccn5)CC4)nc3c12 [I.3, (1R,4R)-N^1-(9-isopropylisoxazolo[5,4-h]quinazolin-2-yl)-N^4-(pyrimidin-2-yl)cyclohexane-1,4-diamine] |
| 249 | 47 | 68 | CC(C)c1noc2ccc3cnc(NC4CCNCC4)nc3c12 [I.4, 9-isopropyl-N-(piperidin-4-yl)isoxazolo[5,4-h]quinazolin-2-amine] |
| 1 | 10 | 24 | CC(C)c1noc2ccc3cnc(NC4CCN(S(C)(=O)=O)CC4)nc3c12 [I.5, 9-isopropyl-N-(1-(methylsulfonyl)piperidin-4-yl)isoxazolo[5,4-h]quinazolin-2-amine] |
| 1 | 5 | 12 | CC(C)c1noc2c(F)cc3cnc(NC4CCN(S(C)(=O)=O)CC4)nc3c12 [I.6, 6-fluoro-9-isopropyl-N-(1-(methylsulfonyl)piperidin-4-yl)isoxazolo[5,4-h]quinazolin-2-amine] |
| 8 | 7 | 3 | CC(C)c1noc2c(Cl)cc3cnc(NC4CCN(S(C)(=O)=O)CC4)nc3c12 [I.7, 6-chloro-9-isopropyl-N-(1-(methylsulfonyl)piperidin-4-yl)isoxazolo[5,4-h]quinazolin-2-amine] |
| 9 | 6 | 3 | CC(C)c1noc2c(Br)cc3cnc(NC4CCN(S(C)(=O)=O)CC4)nc3c12 [I.8, 6-bromo-9-isopropyl-N-(1-(methylsulfonyl)piperidin-4-yl)isoxazolo[5,4-h]quinazolin-2-amine] |
| 5 | 6 | 7 | CC(C)c1noc2c(C(F)F)cc3cnc(NC4CCN(S(C)(=O)=O)CC4)nc3c12 [I.9, 6-(difluoromethyl)-9-isopropyl-N-(1-(methylsulfonyl)piperidin-4-yl)isoxazolo[5,4-h]quinazolin-2-amine] |
| 49 | 72 | 71 | CC(C)c1noc2c(CO)cc3cnc(NC4CCN(S(C)(=O)=O)CC4)nc3c12 [I.10, (9-isopropyl-2-((1-(methylsulfonyl)piperidin-4-yl)amino)isoxazolo[5,4-h]quinazolin-6-yl)methanol] |
| 1 | 10 | 24 | [2H]c1cc2cnc(NC3CCN(S(C)(=O)=O)CC3)nc2c2c(C(C)C)noc12 [I.11, 9-isopropyl-N-(1-(methylsulfonyl)piperidin-4-yl)isoxazolo[5,4-h]quinazolin-6-d-2-amine] |
| 1 | 5 | 13 | Cc1cc2cnc(NC3CCN(S(C)(=O)=O)CC3)nc2c2c(C(C)C)noc12 [I.12, 9-isopropyl-6-methyl-N-(1-(methylsulfonyl)piperidin-4-yl)isoxazolo[5,4-h]quinazolin-2-amine] |
| 1 | 3 | 6 | C[C@@]1(O)CCC[C@H]1c1noc2ccc3cnc(NC4CCN(S(C)(=O)=O)CC4)nc3c12 [I.13, (1R,2S)-1-methyl-2-(2-((1-(methylsulfonyl)piperidin-4-yl)amino)isoxazolo[5,4-h]quinazolin-9-yl)cyclopentan-1-ol] |
| 2 | 5 | 8 | C[C@@]1(O)CCC[C@H]1c1noc2c(C(F)F)cc3cnc(NC4CCN(S(C)(=O)=O)CC4)nc3c12 [I.14, (1R,2S)-2-(6-(difluoromethyl)-2-((1-(methylsulfonyl)piperidin-4-yl)amino)isoxazolo[5,4-h]quinazolin-9-yl)-1-methylcyclopentan-1-ol] |
| 2 | 10 | 8 | CC(C)c1noc2c1-c1nc(NC3CCN(S(C)(=O)=O)CC3)ncc1CC2 [I.15, 9-isopropyl-N-(1-(methylsulfonyl)piperidin-4-yl)-5,6-dihydroisoxazolo[5,4-h]quinazolin-2-amine] |
| > 500 | > 500 | > 500 | CC(C)n1nnc2ccc3cnc(N[C@H]4CC[C@H](N)CC4)nc3c21 [II.1, (1R,4R)-N1-(1-isopropyl-1H-[1,2,3]triazolo[4,5-h]quinazolin-8-yl)cyclohexane-1,4-diamine] |
| 12 | 22 | 26 | CC(C)n1nnc2ccc3cnc(N[C@H]4CC[C@H](NC5CCNCC5)CC4)nc3c21 [II.3, (1R,4R)-N^1-(1-isopropyl-1H-[1,2,3]triazolo[4,5-h]quinazolin-8-yl)-N^4-(piperidin-4-yl)cyclohexane-1,4-diamine] |
| 20 | 16 | 22 | COCCN[C@H]1CC[C@H](Nc2ncc3ccc4nnn(C(C)C)c4c3n2)CC1 [II.4, (1R,4R)-N^1-(1-isopropyl-1H-[1,2,3]triazolo[4,5-h]quinazolin-8-yl)-N^4-(2-methoxyethyl)cyclohexane-1,4-diamine] |
| 140 | 22 | 34 | CC(C)n1nnc2ccc3cnc(N[C@H]4CC[C@H](Nc5ncccn5)CC4)nc3c21 [II.5, (1R,4R)-N^1-(1-isopropyl-1H-[1,2,3]triazolo[4,5-h]quinazolin-8-yl)-N^4-(pyrimidin-2-yl)cyclohexane-1,4-diamine] |
| 35 | 10 | 12 | CC(C)n1nnc2ccc3cnc(N[C@H]4CC[C@H](N(C)C)CC4)nc3c21 [II.6, (1R,4R)-N^1-(1-isopropyl-1H-[1,2,3]triazolo[4,5-h]quinazolin-8-yl)-N^4,N^4-dimethylcyclohexane-1,4-diamine] |
| 465 | 40 | 26 | CC(C)n1nnc2ccc3cnc(N[C@H]4CC[C@H](N5CCN(C6CCCC6)CC5)CC4)nc3c21 [II.7, N-((1R,4R)-4-(4-cyclopentylpiperazin-1-yl)cyclohexyl)-1-isopropyl-1H-[1,2,3]triazolo[4,5-h]quinazolin-8-amine] |
| 356 | 26 | 35 | CC(C)n1nnc2ccc3cnc(N[C@H]4CC[C@H](N5CCN(C(=O)C6CC6)CC5)CC4)nc3c21 [II.9, Cyclopropyl(4-((1R,4R)-4-((1-isopropyl-1H-[1,2,3]triazolo [4,5-h]quinazolin-8-yl)amino)cyclohexyl)piperazin-1-yl) ketone] |
| 336 | 22 | 46 | CC(C)n1nnc2ccc3cnc(N[C@H]4CC[C@H](N5CCN(C(=O)c6ccccc6)CC5)CC4)nc3c21 [II.10, (4-((1R,4R)-4-((1-isopropyl-1H-[1,2,3]triazolo[4,5-h]quinazolin-8-yl)amino)cyclohexyl)piperazin-1-yl)(phenyl) ketone] |
| 1 | 8 | 15 | CC(C)n1nnc2ccc3cnc(NC4CCC(NS(C)(=O)=O)CC4)nc3c21 (stereo not drawn) [II.11, N-(4-((1-isopropyl-1H-[1,2,3]triazolo[4,5-h]quinazolin-8-yl)amino)cyclohexyl)methanesulfonamide] |
| 151 | 51 | 89 | CC(C)n1nnc2ccc3cnc(NC4CCNCC4)nc3c21 [II.12, 1-isopropyl-N-(piperidin-4-yl)-1H-[1,2,3]triazolo[4,5-h] quinazolin-8-amine] |
| 110 | 41 | 90 | CC(C)n1nnc2ccc3cnc(NC4CCN(C)CC4)nc3c21 [II.13, 1-isopropyl-N-(1-methylpiperidin-4-yl)-1H-[1,2,3]triazolo [4,5-h]quinazolin-8-amine] |
| 0.2 | 3 | 5 | CC(C)n1nnc2ccc3cnc(NC4CCN(S(C)(=O)=O)CC4)nc3c21 [II.14, 1-isopropyl-N-(1-(methylsulfonyl)piperidin-4-yl)-1H-[1,2,3] triazolo[4,5-h]quinazolin-8-amine] |
| 0.3 | 3 | 4 | CCS(=O)(=O)N1CCC(Nc2ncc3ccc4nnn(C(C)C)c4c3n2)CC1 [II.15, N-(1-(ethylsulfonyl)piperidin-4-yl)-1-isopropyl-1H-[1,2,3] triazolo[4,5-h]quinazolin-8-amine] |
| 0.2 | 3 | 5 | CC(C)n1nnc2ccc3cnc(NC4CCN(S(=O)(=O)C5CC5)CC4)nc3c21 [II.16, N-(1-(cyclopropylsulfonyl)piperidin-4-yl)-1-isopropyl-1H-[1,2,3]triazolo[4,5-h]quinazolin-8-amine] |
| 1 | 8 | 15 | CC(C)n1nnc2ccc3cnc(NC4CCN(S(=O)(=O)CC5CC5)CC4)nc3c21 [II.17, N-(1-((cyclopropylmethyl)sulfonyl)piperidin-4-yl)-1-iso-propyl-1H-[1,2,3]triazolo[4,5-h]quinazolin-8-amine] |
